Test results taken from the supplement of paper PMC10307832.

What was measured:
Assay in all cases: relative viability (nuclei count vs DMSO), 5 days (fraction); higher = more cells survive
Metformin + Navitoclax = compound: CN(C)C(=N)NC(=N)N [Metformin] + CC1(C)CCC(c2ccc(Cl)cc2)=C(CN2CCN(c3ccc(C(=O)NS(=O)(=O)c4ccc(N[C@H](CCN5CCOCC5)CSc5ccccc5)c(S(=O)(=O)C(F)(F)F)c4)cc3)CC2)C1 [Navitoclax] (partner 0.5 µM)
Summary of the method: (§1)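 The day after seeding in 1536-well plates, lung cancer cell lines were treated by pin tool with a single drug, or with a fixed anchor-drug dose together with five library-drug doses (not always all listed) in √10 steps. After 5 days, a combined fix-and-stain solution (final 0.05% Triton X-100, 1% formaldehyde, 1 ug/ml Hoechst) was added. Nuclei counted on 4× images gave relative viability as treated counts over vehicle counts, reported as the median of duplicate plates.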

Metformin + Lapatinib = compound: CN(C)C(=N)NC(=N)N [Metformin] + CS(=O)(=O)CCNCc1ccc(-c2ccc3ncnc(Nc4ccc(OCc5cccc(F)c5)c(Cl)c4)c3c2)o1 [Lapatinib] (partner 2 µM)
Summary of the method: as §1

Apatinib + Luminespib = compound: N#CC1(c2ccc(NC(=O)c3cccnc3NCc3ccncc3)cc2)CCCC1 [Apatinib] + CCNC(=O)c1noc(-c2cc(C(C)C)c(O)cc2O)c1-c1ccc(CN2CCOCC2)cc1 [Luminespib] (partner 0.01 µM)
Summary of the method: as §1

Apatinib + Dasatinib = compound: N#CC1(c2ccc(NC(=O)c3cccnc3NCc3ccncc3)cc2)CCCC1 [Apatinib] + Cc1nc(Nc2ncc(C(=O)Nc3c(C)cccc3Cl)s2)cc(N2CCN(CCO)CC2)n1 [Dasatinib] (partner 0.075 µM)
Summary of the method: as §1

## HCC-827
Metformin + Navitoclax; first compound 31.62 µM
  relative viability: 0.96
Metformin + Navitoclax; first compound 100 µM
  relative viability: 0.982
Metformin + Navitoclax; first compound 316.23 µM
  relative viability: 0.923
Metformin + Navitoclax; first compound 1000 µM
  relative viability: 1.01
Metformin + Lapatinib; first compound 31.62 µM
  relative viability: 0.216
Metformin + Lapatinib; first compound 100 µM
  relative viability: 0.185
Metformin + Lapatinib; first compound 316.23 µM
  relative viability: 0.232
Metformin + Lapatinib; first compound 1000 µM
  relative viability: 0.18
Apatinib + Luminespib; first compound 0.08 µM
  relative viability: 0.765
Apatinib + Luminespib; first compound 0.253 µM
  relative viability: 0.704
Apatinib + Luminespib; first compound 0.8 µM
  relative viability: 0.391
Apatinib + Luminespib; first compound 2.53 µM
  relative viability: 0.777
Apatinib + Luminespib; first compound 8 µM
  relative viability: 0.566
Apatinib + Dasatinib; first compound 0.08 µM
  relative viability: 0.287
Apatinib + Dasatinib; first compound 0.253 µM
  relative viability: 0.326
Apatinib + Dasatinib; first compound 0.8 µM
  relative viability: 0.273
Apatinib + Dasatinib; first compound 2.53 µM
  relative viability: 0.236
Apatinib + Dasatinib; first compound 8 µM
  relative viability: 0.231

## NCI-H441
Metformin + Navitoclax; first compound 10 µM
  relative viability: 0.408
Metformin + Navitoclax; first compound 100 µM
  relative viability: 0.55
Metformin + Navitoclax; first compound 1000 µM
  relative viability: 0.486
Apatinib + Luminespib; first compound 0.08 µM
  relative viability: 0.261
Apatinib + Luminespib; first compound 0.253 µM
  relative viability: 0.296
Apatinib + Luminespib; first compound 0.8 µM
  relative viability: 0.253
Apatinib + Luminespib; first compound 2.53 µM
  relative viability: 0.406
Apatinib + Luminespib; first compound 8 µM
  relative viability: 0.308
Apatinib + Dasatinib; first compound 0.08 µM
  relative viability: 0.646
Apatinib + Dasatinib; first compound 0.253 µM
  relative viability: 0.486
Apatinib + Dasatinib; first compound 0.8 µM
  relative viability: 0.511
Apatinib + Dasatinib; first compound 2.53 µM
  relative viability: 0.566
Apatinib + Dasatinib; first compound 8 µM
  relative viability: 0.449

## LCLC-103H
Apatinib + Luminespib; first compound 0.08 µM
  relative viability: 0.969
Apatinib + Luminespib; first compound 0.253 µM
  relative viability: 0.949
Apatinib + Luminespib; first compound 0.8 µM
  relative viability: 0.864
Apatinib + Luminespib; first compound 2.53 µM
  relative viability: 0.957
Apatinib + Luminespib; first compound 8 µM
  relative viability: 0.735
Apatinib + Dasatinib; first compound 0.08 µM
  relative viability: 0.436
Apatinib + Dasatinib; first compound 0.253 µM
  relative viability: 0.402
Apatinib + Dasatinib; first compound 0.8 µM
  relative viability: 0.458
Apatinib + Dasatinib; first compound 2.53 µM
  relative viability: 0.43
Apatinib + Dasatinib; first compound 8 µM
  relative viability: 0.344

## HARA
Metformin + Navitoclax; first compound 10 µM
  relative viability: 1.13
Metformin + Navitoclax; first compound 31.62 µM
  relative viability: 1.1
Metformin + Navitoclax; first compound 100 µM
  relative viability: 1.2
Metformin + Navitoclax; first compound 316.23 µM
  relative viability: 1.02
Metformin + Navitoclax; first compound 1000 µM
  relative viability: 1.16
Metformin + Lapatinib; first compound 10 µM
  relative viability: 1
Metformin + Lapatinib; first compound 31.62 µM
  relative viability: 1
Metformin + Lapatinib; first compound 100 µM
  relative viability: 1.14
Metformin + Lapatinib; first compound 316.23 µM
  relative viability: 1
Metformin + Lapatinib; first compound 1000 µM
  relative viability: 0.957
Apatinib + Luminespib; first compound 0.08 µM
  relative viability: 0.928
Apatinib + Luminespib; first compound 0.253 µM
  relative viability: 0.875
Apatinib + Luminespib; first compound 0.8 µM
  relative viability: 0.419
Apatinib + Luminespib; first compound 2.53 µM
  relative viability: 0.6
Apatinib + Luminespib; first compound 8 µM
  relative viability: 0.678
Apatinib + Dasatinib; first compound 0.08 µM
  relative viability: 0.373
Apatinib + Dasatinib; first compound 0.253 µM
  relative viability: 0.242
Apatinib + Dasatinib; first compound 0.8 µM
  relative viability: 0.209
Apatinib + Dasatinib; first compound 2.53 µM
  relative viability: 0.213
Apatinib + Dasatinib; first compound 8 µM
  relative viability: 0.248
